Consider three compounds from patent US5494913A, “Antifungal compounds” (Schering Corporation, priority 1994, dated 1996).

The test system of data set [1] is C. albicans & C. tropicalis. Briefly: In vitro antifungal MIC in EMEM (pH 7.0), C. albicans & C. tropicalis. Type of data set: cell-based. The note with it: 9 strains; for MIC: 48/72 hr, read-out: Geometric means MICs, 48/72 hr. As to the method:
(§1) Compounds A and B of the invention were tested in standard antifungal assays and data from these tests appear in the Table 13 just below.
(§2) In vitro activity of compounds
(§3) A and B and Albofungin against various fungi
(§4) Geometric means MICs μg/ml, 48/72 hr)
EMEM means Eagle's minimum essential medium, pH 7.0.

The test system of a further data set is Aspergillus. As to the kind of experiment: In vitro antifungal MIC in SDB (pH 5.7), Aspergillus. Type of data set: cell-based. The conditions noted are these: 3 strains; for MIC: 48/72 hr, read-out: Geometric means MICs, 48/72 hr. As to the method: as §1, §2, §3, §4
(§5) SDB means Sabourand dextrose broth, pH 5.7;

A further data set in a line: In vivo LD50, iv. The note with it: mpk means mg. per kg., range for compounds A and B, printed with "about".
For data set [2], the system named is various yeasts and dermatophytes. Briefly: Antifungal MIC against various yeasts and dermatophytes (summary statement). The class given is cell-based. The conditions noted are these: read-out: MIC values. As to the method: as §1
Data set [3] has as its system C. albicans & C. tropicalis. As to the kind of experiment: In vitro antifungal MIC in SDB (pH 5.7), C. albicans & C. tropicalis. The class given is cell-based. The note with it: 8 strains; for MIC: 48/72 hr, read-out: Geometric means MICs, 48/72 hr. As for the experimental part:
as §1, §2, §3, §4, §5

The next data set deals with Other Candida. As to the kind of experiment: In vitro antifungal MIC in SDB (pH 5.7), other Candida. The class given is cell-based. The conditions noted are these: 6 strains; for MIC: 48/72 hr, read-out: Geometric means MICs, 48/72 hr. As to the method:
as §1, §2, §3, §4, §5

A further data set relates to Dermatophytes. As to the kind of experiment: In vitro antifungal MIC in SDB (pH 5.7), dermatophytes. The conditions noted are these: 5 strains; for MIC: 48/72 hr, read-out: Geometric means MICs, 48/72 hr. The class given is cell-based. As to the method: as §1, §2, §3, §4, §5

Values after ≈ are worked out from the molar mass of the structure shown.

The LD50 is the dose at which mortality reaches 50%. Read a high LD50 as lower toxicity. On to `CCC(C)c1cc2c(Cl)c3c(c(O)c2c(=O)n1N)-c1c(O)c2c(c4c1C(C3)OCO4)OC1C(OC)C=CC(O)C1C2=O` (stereo not drawn) [Compound A], for which the MIC in data set [1] is under 2.16 mg/L; in the data set on Aspergillus, 0.0248 mg/L (≈ 0.0415 µM); in data set [2], at most 0.000386 mg/L; in data set [3], under 0.000386 mg/L; with Other Candida, under 0.00128 mg/L; with Dermatophytes, 0.00764 mg/L (≈ 0.0128 µM). In addition, the LD50 in the data set “In vivo LD50, iv” fell in the range of 1 to 25 mg/kg.

As to `CCC(C)c1cc2cc3c(c(O)c2c(=O)n1C)-c1c(O)c2c(c(OC)c1CC3)O[C@H]1[C@@H](C2=O)[C@@H](O)C=C[C@H]1O` (stereo partly drawn) [Compound B], the MIC is under 0.135 mg/L in data set [1]; 0.794 mg/L (≈ 1.49 µM) in the data set with Aspergillus; 0.017 mg/L (≈ 0.0319 µM) in data set [3]; 0.0312 mg/L (≈ 0.0585 µM) in the data set on Other Candida; 0.144 mg/L (≈ 0.269 µM) with Dermatophytes. Besides, the LD50 in the data set “In vivo LD50, iv” was 1 to 25 mg/kg.

Regarding Albofungin [reference compound], the “Geometric means MICs, 48/72 hr” value in data set [1] is under 0.0182 µg/mL; in the data set with Aspergillus it was 0.125 µg/mL; in data set [3], under 0.00055 µg/mL; in the data set with Other Candida it was under 0.00099 µg/mL; in the data set with Dermatophytes it was 0.0359 µg/mL.
